According to ChEMBL document CHEMBL5614425, “Novel inhibitors of bromodomain and extra-terminal domain trigger cell death in breast cancer cell lines” (2024):

Legend:
[1] = target: T1, NAD-dependent protein deacetylase sirtuin-2 (Homo sapiens) (UniProt Q8IXJ6); test: Inhibition of SIRT2 (unknown origin) using IU179 as substrate incubated for 30 mins by Fluor de Lys sirtuin assay relative to control; set-up: concentration or dose not given beside the values
T1 sequence (whole entry): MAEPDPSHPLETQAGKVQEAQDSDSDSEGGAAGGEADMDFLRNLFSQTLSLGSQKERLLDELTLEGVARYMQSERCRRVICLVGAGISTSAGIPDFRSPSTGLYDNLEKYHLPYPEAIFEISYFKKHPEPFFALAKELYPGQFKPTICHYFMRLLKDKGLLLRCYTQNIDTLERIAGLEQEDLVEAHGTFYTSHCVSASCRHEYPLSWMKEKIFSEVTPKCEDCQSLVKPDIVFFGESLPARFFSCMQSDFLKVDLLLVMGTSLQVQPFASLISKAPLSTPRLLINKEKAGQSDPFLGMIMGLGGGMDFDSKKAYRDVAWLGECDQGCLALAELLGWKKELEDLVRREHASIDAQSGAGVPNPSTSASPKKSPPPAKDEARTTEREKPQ

[2] = system: T47D; test: Antitumor activity against human T47D cell spheroids assessed as reduction in spheroid growth at 100 uM measured for >200 hrs by Image J analysis relative to control; assay type: functional; set-up: scale not given: the % may be the effect or the level left
[3] = system: T47D; test: Antiproliferative activity against human T47D cells assessed as decrease in cell numbers at 10 to 100 uM incubated for 24 hrs by PI staining based analysis relative to control; assay type: functional; set-up: scale not given: the % may be the effect or the level left; conditions: dose 10-100 µM
[4] = system: T47D; test: Antitumor activity against human T47D cell spheroids assessed as reduction in spheroid growth at 10 to 100 uM measured for >200 hrs by Image J analysis relative to control; assay type: functional; set-up: scale not given: the % may be the effect or the level left; conditions: dose 10-100 µM

inhibition [1] [%]	Compound	Activity [2] [%]	Activity [3] [%]	Activity [4] [%]
< 50	Cc1cnc2c(c1)N(C(=O)COc1ccc(Cl)c(C)c1)CCC2			
84	CC1CCCCN1S(=O)(=O)c1ccc(C(=O)Nc2ccc(N3CCOCC3)c3ccncc23)cc1 (centres undefined)			
< 50	NC(=O)C(NC(=O)CCCOc1ccc2c(c1)CCC(=O)N2)C(N)=O			
50	COc1cc(/C=N/c2ccc(N3N=C(C)CC3=O)cc2)ccc1O			
< 50	Cc1ccc(NC(=O)c2ccc(S(=O)(=O)N3CCCCCC3)cc2)c(C)c1	100	>40	~20
< 50	CCOc1ccc(C(C)NC(=O)COc2ccc3c(c2)CCC(=O)N3)cc1 (centres undefined)			
